Key:
MRGPRX2 [1] = target: T1, MRGPRX2 (Homo sapiens, UniProt Q96LB1); assay: MRGPRX2 IP1 HTRF assay; type: cell-based; parameters: host or cells: CHO-K1; details: CHO-K1 cells, agonist Cortistatin 14 1 μM, IP1 accumulation
T1 sequence (Q96LB1 1-330): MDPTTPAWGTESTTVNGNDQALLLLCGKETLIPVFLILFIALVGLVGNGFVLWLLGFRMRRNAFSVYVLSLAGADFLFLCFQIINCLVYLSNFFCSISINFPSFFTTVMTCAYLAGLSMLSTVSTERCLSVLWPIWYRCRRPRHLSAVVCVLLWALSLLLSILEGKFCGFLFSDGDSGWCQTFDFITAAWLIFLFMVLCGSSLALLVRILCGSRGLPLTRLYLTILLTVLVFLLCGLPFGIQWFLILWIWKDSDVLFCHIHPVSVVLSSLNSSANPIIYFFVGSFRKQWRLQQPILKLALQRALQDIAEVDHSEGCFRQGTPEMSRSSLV
Source text: Example B: MRGPRX2 IP1 HTRF Assay
This assay measures compound inhibition of myo-Inositol 1 phosphate (IP1) accumulation in CHO-K1 cells. Chinese hamster ovary (CHO-K1) cells stably expressing human MRGPRX2 were purchased from GenScript (Piscataway, NJ).
For the HTRF IP1 determination, an IP-One GqKit (Perkin Elmer Cisbio, Waltham, MA), which includes all reagents and buffers in this protocol, was used. The cells were maintained in culture medium (Ham's F-12K) containing 10% (v/v) FBS, and 200 μg/mL Zeocin. For the assay, the cells were harvested and resuspended in culture medium with 2% FBS and without Zeocin, then were passed through a 40 μm filter. Cells were added at 20000 cells in a 5 μL/well to a 384-well white small volume cell culture plate (Greiner VWR, Radnor, PA) which contained 50 nL/well of test compound serially diluted at a selected concentration range in DMSO. 5 μL/well of prepared 2× Stimulation Buffer2 was then added to plates and was incubated at 37° C. with 5% CO2 for 1 h. 5 μL/well of agonist Cortistatin 14 (Bio-TechneR&D Systems, Minneapolis, MN) in 1× Stimulation Buffer 2, for a 1 μM final concentration, was then added to plates and incubated at 37° C. with 5% CO2 for 1 h. 6 μL/well of 1:20 diluted Detection Reagent Mix (d2 and Cryptate) was added to the plates and incubated for 1 h in the dark. Plates were read on the PHERAstar microplate reader (BMG Labtech Cary, NC) to determine the HTRF ratio of the acceptor and donor emission signals. The IP1 concentrations were calculated from a standard curve following the IP-One GQ kit instructions. Wells with DMSO only and wells with high concentration of reference antagonist were used as controls for normalization. Compound IC50 curves were globally fitted with 3- or 4-parameter Hill equation in a Genedata Screener (Genedata Basel, Switzerland).

MRGPRX2 [2] = target: T1, MRGPRX2; assay: MRGPRX2 β-Arrestin recruitment assay (PathHunter CHO-K1); type: cell-based; parameters: host or cells: PathHunter CHO-K1; details: PathHunter CHO-K1 cells, agonist Cortistatin 14 0.25 μM
Source text: Example C: MRGPRX2 β-Arrestin Assay
This assay measures compound inhibition of β-Arrestin recruitment, which is part of the G protein-independent pathway that results from the ligand-activated GPCR phosphorylation by specific GPCR kinases. The PathHunter CHO-K1 MRPGRX2 B-Arrestin Cell line stably expressing ProLink tagged MRGPRX2 and Enzyme Acceptor Tagged B-Arrestin was purchased from Eurofins DiscoverX, (Fremont, CA).
The cells were maintained in culture medium from the Europhins DiscoverX Cell Culture Kit-107 which includes FBS, hygromycin B and G418. For the assay, the cells were harvested and were resuspended with Cell Plating Reagent 2 (Eurofins DiscoverX). Cells were added 10000 cells in 25 μL/well to a 384-well black cell culture plate (Greiner VWR, Radnor, PA) which contained 125 nL/well of compound at a selected serially diluted concentration range or DMSO. The plate was incubated at 37° C. with 5% CO2 for 1 h. 2 μL/well of agonist Cortistatin 14 was diluted in Protein Dilution Buffer, (Eurofins DiscoverX) for a final concentration of 0.25 μM, was added and the plate was incubated at 37° C. with 5% CO2 for 90 min. 14 μL/well of Detection Reagent Mix (PathHunter Detection Kit, Eurofins DiscoverX) was added to the plates and further incubated for 1 h in the dark. Plates were read on the PHERAstar microplate reader (BMG Labtech Cary, NC) measuring luminescence 0.1 to 1 s per well. Data was normalized using DMSO only wells and wells with high concentration of reference antagonist as controls. Compound IC50 curves were globally fitted with 3- or 4-parameter Hill equation in a Genedata Screener (Genedata Basel, Switzerland).

Row | Structure (SMILES) | IC50 (MRGPRX2 [1]) [nM] | IC50 (MRGPRX2 [2]) [nM]
1 | CC(CNc1cc(C(F)F)nc2cc(C(F)(F)F)nn12)(c1ccccc1)C1CN(C(N)=O)C1 (racemic) [Example 8, 3-(1-((5-(Difluoromethyl)-2-(trifluoromethyl)pyrazolo[1,5-a]pyrimidin-7-yl)amino)-2-phenylpropan-2-yl)azetidine-1-carboxamide] | 0.1 to 100 | 0.1 to 100
2 | CC(CNc1cc(C(F)(F)F)nc2cc(C(F)(F)F)nn12)(c1ccccc1)C1CN(C(N)=O)C1 (racemic) [Example 10, 3-(1-((2,5-Bis(trifluoromethyl)pyrazolo[1,5-a]pyrimidin-7-yl)amino)-2-phenylpropan-2-yl)azetidine-1-carboxamide] | 0.1 to 100 | 0.1 to 100
3 | Cn1ccnc1NC1CN(C(CNc2cc(C(F)(F)F)nc3cc(C(F)(F)F)nn23)c2ccc(F)cc2)C1 (racemic) [Example 28, N-(2-(4-Fluorophenyl)-2-(3-((1-methyl-1H-imidazol-2-yl)amino)azetidin-1-yl)ethyl)-2,5-bis(trifluoromethyl)pyrazolo[1,5-a]pyrimidin-7-amine] | – | 0.1 to 100
4 | NC(=O)N1CC2(CCN(C(CNc3cc(C(F)(F)F)nc4cc(C(F)(F)F)nn34)c3ccc(F)cc3)C2)C1 (racemic) [Example 33, 6-(2-((2,5-Bis(trifluoromethyl)pyrazolo[1,5-a]pyrimidin-7-yl)amino)-1-(4-fluorophenyl)ethyl)-2,6-diazaspiro[3.4]octane-2-carboxamide] | – | 0.1 to 100
5 | O=C1NC2(CO1)CN(C(CNc1cc(C(F)(F)F)nc3cc(C(F)(F)F)nn13)c1ccc(F)cc1)C2 (racemic) [Example 42, 2-(2-((2,5-Bis(trifluoromethyl)pyrazolo[1,5-a]pyrimidin-7-yl)amino)-1-(4-fluorophenyl)ethyl)-7-oxa-2,5-diazaspiro[3.4]octan-6-one] | – | 0.1 to 100
6 | CC(CNc1cc(C(F)(F)F)nc2cc(C(F)(F)F)nn12)(c1ccc(F)cc1)C1CCN(C(N)=O)C1 (single isomer, unassigned) [Example 3, 3-(1-((2,5-Bis(trifluoromethyl)pyrazolo[1,5-a]pyrimidin-7-yl)amino)-2-(4-fluorophenyl)propan-2-yl)pyrrolidine-1-carboxamide] | – | 0.1 to 100
7 | NC(=O)N1CC2(C1)CN(C(CNc1cc(C(F)(F)F)nc3cc(C(F)(F)F)nn13)c1ccc(F)cc1)C2 (single isomer, unassigned) [Example 29, 6-(2-((2,5-Bis(trifluoromethyl)pyrazolo[1,5-a]pyrimidin-7-yl)amino)-1-(4-fluorophenyl)ethyl)-2,6-diazaspiro[3.3]heptane-2-carboxamide] | – | 0.1 to 100
8 | OC1CC2CC1CN2C(CNc1cc(C(F)(F)F)nc2cc(C(F)(F)F)nn12)c1ccc(F)cc1 (stereo not drawn) [Example 22, 2-(2-((2,5-Bis(trifluoromethyl)pyrazolo[1,5-a]pyrimidin-7-yl)amino)-1-(4-fluorophenyl)ethyl)-2-azabicyclo[2.2.1]heptan-5-ol] | – | 0.1 to 100

Next, values leading:

Row | IC50 (MRGPRX2 [1]) [nM] | IC50 (MRGPRX2 [2]) [nM] | Structure (SMILES)
9 | 0.1 to 100 | 0.1 to 100 | CC(CNc1cc(C(F)F)nc2cc(C(F)(F)F)nn12)(c1ccccc1)C1CN(S(N)(=O)=O)C1 (racemic) [Example 7, 3-(1-((5-(Difluoromethyl)-2-(trifluoromethyl)pyrazolo[1,5-a]pyrimidin-7-yl)amino)-2-phenylpropan-2-yl)azetidine-1-sulfonamide]
10 | 0.1 to 100 | 0.1 to 100 | CC(CNc1cc(C(F)(F)F)nc2cc(C(F)(F)F)nn12)(c1ccccc1)C1CN(c2n[nH]c(N)n2)C1 (racemic) [Example 9, N-(2-(1-(5-Amino-1H-1,2,4-triazol-3-yl)azetidin-3-yl)-2-phenylpropyl)-2,5-bis(trifluoromethyl)pyrazolo[1,5-a]pyrimidin-7-amine]
11 | 0.1 to 100 | 0.1 to 100 | CC(CNc1cc(C(F)(F)F)nc2cc(C(F)(F)F)nn12)(c1ccccc1)C1CNC1 (racemic) [Example 11, N-(2-(Azetidin-3-yl)-2-phenylpropyl)-2,5-bis(trifluoromethyl)pyrazolo[1,5-a]pyrimidin-7-amine]
12 | – | 0.1 to 100 | O=C1CCC2(CN(C(CNc3cc(C(F)(F)F)nc4cc(C(F)(F)F)nn34)c3ccc(F)cc3)C2)N1 (racemic) [Example 32, 2-(2-((2,5-Bis(trifluoromethyl)pyrazolo[1,5-a]pyrimidin-7-yl)amino)-1-(4-fluorophenyl)ethyl)-2,5-diazaspiro[3.4]octan-6-one]
13 | – | 0.1 to 100 | N#CC1(C(=O)N2CC3(C2)CN(C(CNc2cc(C(F)(F)F)nc4cc(C(F)(F)F)nn24)c2ccc(F)cc2)C3)CC1 (racemic) [Example 38, 1-(6-(2-((2,5-Bis(trifluoromethyl)pyrazolo[1,5-a]pyrimidin-7-yl)amino)-1-(4-fluorophenyl)ethyl)-2,6-diazaspiro[3.3]heptane-2-carbonyl)cyclopropane-1-carbonitrile]
14 | – | 0.1 to 100 | O=C(CO)N1CC2(C1)CN(C(CNc1cc(C(F)(F)F)nc3cc(C(F)(F)F)nn13)c1ccc(F)cc1)C2 (racemic) [Example 39, 1-(6-(2-((2,5-Bis(trifluoromethyl)pyrazolo[1,5-a]pyrimidin-7-yl)amino)-1-(4-fluorophenyl)ethyl)-2,6-diazaspiro[3.3]heptan-2-yl)-2-hydroxyethan-1-one]
15 | – | 0.1 to 100 | [2H]C([2H])([2H])NC(=O)N1CC2(C1)CN(C(CNc1cc(C(F)(F)F)nc3cc(C(F)(F)F)nn13)c1ccc(F)cc1)C2 (racemic) [Example 40, 6-(2-((2,5-Bis(trifluoromethyl)pyrazolo[1,5-a]pyrimidin-7-yl)amino)-1-(4-fluorophenyl)ethyl)-N-(methyl-d3)-2,6-diazaspiro[3.3]heptane-2-carboxamide]
16 | – | 0.1 to 100 | O=C(NCC(F)(F)F)N1CC2(C1)CN(C(CNc1cc(C(F)(F)F)nc3cc(C(F)(F)F)nn13)c1ccc(F)cc1)C2 (racemic) [Example 41, 6-(2-((2,5-Bis(trifluoromethyl)pyrazolo[1,5-a]pyrimidin-7-yl)amino)-1-(4-fluorophenyl)ethyl)-N-(2,2,2-trifluoroethyl)-2,6-diazaspiro[3.3]heptane-2-carboxamide]
17 | – | 0.1 to 100 | CC(CNc1cc(C(F)(F)F)nc2cc(C(F)(F)F)nn12)(c1ccc(F)cc1)C1CCN(C(N)=O)C1 (single isomer, unassigned) [Example 4, 3-(1-((2,5-Bis(trifluoromethyl)pyrazolo[1,5-a]pyrimidin-7-yl)amino)-2-(4-fluorophenyl)propan-2-yl)pyrrolidine-1-carboxamide]
18 | 0.1 to 100 | – | C[C@](CNc1cc(C(F)(F)F)nc2cc(C(F)(F)F)nn12)(c1ccc(F)cc1)C1CN(C(N)=O)C1 (single isomer, unassigned) [Example 5, 3-(1-((2,5-Bis(trifluoromethyl)pyrazolo[1,5-a]pyrimidin-7-yl)amino)-2-(4-fluorophenyl)propan-2-yl)azetidine-1-carboxamide]
19 | – | 0.1 to 100 | NC(=O)N1CCC(C(CO)(CNc2cc(C(F)(F)F)nc3cc(C(F)(F)F)nn23)c2ccc(F)cc2)C1 (single isomer, unassigned) [Example 19, 3-(1-((2,5-Bis(trifluoromethyl)pyrazolo[1,5-a]pyrimidin-7-yl)amino)-2-(4-fluorophenyl)-3-hydroxypropan-2-yl)pyrrolidine-1-carboxamide]
